Test results reported in the supplement of paper PMC11061612.

What was measured:
Palbociclib = compound: CC(=O)c1c(C)c2cnc(Nc3ccc(N4CCNCC4)cn3)nc2n(C2CCCC2)c1=O [Palbociclib]; details: max 10 µM
Outline: (§1)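 In 1536-well plates, cancer cell lines in 7.5 μl DMEM/F12 or RPMI with 10% FBS spent 24 hours at 37°C and 5% CO2 and were then dosed for 72 hours with final DMSO typically 0.2%. Viability was read by CellTiter-Glo 2.0 luminescence and scaled between blank-well and DMSO-well means. The single-agent IC50 was fitted from dose responses using a logistic curve in a non-linear mixed effects model, and that logistic curve had two parameters.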

Taselisib = compound: Cc1nc(-c2cn3c(n2)-c2ccc(-c4cnn(C(C)(C)C(N)=O)c4)cc2OCC3)n(C(C)C)n1 [Taselisib]; details: max 10 µM
Outline: as §1

Prexasertib = compound: COc1cccc(OCCCN)c1-c1cc(Nc2cnc(C#N)cn2)n[nH]1 [Prexasertib]; details: max 1 µM
Outline: as §1

AZD1390 = compound: CC(C)n1c(=O)n(C)c2cnc3cc(F)c(-c4ccc(OCCCN5CCCCC5)nc4)cc3c21 [AZD1390]; details: max 0.3 µM
Outline: as §1

Crizotinib = compound: C[C@@H](Oc1cc(-c2cnn(C3CCNCC3)c2)cnc1N)c1c(Cl)ccc(F)c1Cl [Crizotinib]; details: max 10 µM
Outline: as §1

Paclitaxel = compound: CC(=O)O[C@H]1C(=O)[C@@]2(C)[C@H]([C@H](OC(=O)c3ccccc3)[C@]3(O)C[C@H](OC(=O)[C@H](O)[C@@H](NC(=O)c4ccccc4)c4ccccc4)C(C)=C1C3(C)C)[C@]1(OC(C)=O)CO[C@@H]1C[C@@H]2O [Paclitaxel]; details: max 3 µM
Outline: as §1

Alisertib = compound: COc1cc(Nc2ncc3c(n2)-c2ccc(Cl)cc2C(c2c(F)cccc2OC)=NC3)ccc1C(=O)O [Alisertib]; details: max 10 µM
Outline: as §1

Doxorubicin = compound: COc1cccc2c1C(=O)c1c(O)c3c(c(O)c1C2=O)C[C@@](O)(C(=O)CO)C[C@@H]3O[C@H]1C[C@H](N)[C@H](O)[C@H](C)O1 [Doxorubicin]; details: max 1 µM
Outline: as §1

Carboplatin = compound: C1CC(C1)(C(=O)[O-])C(=O)[O-].N.N.[Pt+2] [Carboplatin]; details: max 10 µM
Outline: as §1

Venetoclax = compound: CC1(C)CCC(CN2CCN(c3ccc(C(=O)NS(=O)(=O)c4ccc(NCC5CCOCC5)c([N+](=O)[O-])c4)c(Oc4cnc5[nH]ccc5c4)c3)CC2)=C(c2ccc(Cl)cc2)C1 [Venetoclax]; details: max 1 µM
Outline: as §1

Gemcitabine = compound: Nc1ccn([C@@H]2O[C@H](CO)[C@@H](O)C2(F)F)c(=O)n1 [Gemcitabine]; details: max 0.3 µM
Outline: as §1

SN-38 = compound: CCc1c2c(nc3ccc(O)cc13)-c1cc3c(c(=O)n1C2)COC(=O)[C@]3(O)CC [SN-38]; details: max 0.3 µM
Outline: as §1

SG3199 = compound: CC1=CN2[C@@H](C1)C=NC3=CC(=C(C=C3C2=O)OC)OCCCCCOC4=C(C=C5C(=C4)N=C[C@@H]6CC(=CN6C5=O)C)OC [SG3199]; details: max 0.001 µM
Outline: as §1

Gefitinib = compound: COc1cc2ncnc(Nc3ccc(F)c(Cl)c3)c2cc1OCCCN1CCOCC1 [Gefitinib]; details: max 10 µM
Outline: as §1

AZD6738 = compound: C[C@@H]1COCCN1C2=NC(=NC(=C2)C3(CC3)[S@](=N)(=O)C)C4=C5C=CNC5=NC=C4 [AZD6738]; details: max 10 µM
Outline: as §1

5-Fluorouracil = compound: O=c1[nH]cc(F)c(=O)[nH]1 [5-Fluorouracil]; details: max 20 µM
Outline: as §1

AZD5363 = compound: C1CN(CCC1(C(=O)N[C@@H](CCO)C2=CC=C(C=C2)Cl)N)C3=NC=NC4=C3C=CN4 [AZD5363]; details: max 10 µM
Outline: as §1

AZD2811 = compound: CCN(CCO)CCCOc1ccc2c(Nc3cc(CC(=O)Nc4cccc(F)c4)[nH]n3)ncnc2c1 [AZD2811]; details: max 1 µM
Outline: as §1

AZD1775 = compound: C=CCn1c(=O)c2cnc(Nc3ccc(N4CCN(C)CC4)cc3)nc2n1-c1cccc(C(C)(C)O)n1 [AZD1775]; details: max 3 µM
Outline: as §1

[1] = compound: O=C(Nc1ccc2[nH]nc(-c3ccncc3)c2c1)[C@@H]1CCN(CC(=O)N2CCN(c3ccc(-c4ncccn4)cc3)CC2)C1; details: max 5 µM
Outline: as §1

AZD4320 = compound: CN(CC[C@H](CSC1=CC=CC=C1)NC2=C(C=C(C=C2)S(=O)(=O)NC(=O)C3=CC=C(C=C3)N4CCC(CC4)[C@H](C5=CC=CC=C5C6=CC=C(C=C6)Cl)O)S(=O)(=O)C(F)(F)F)CCO [AZD4320]; details: max 1 µM
Outline: as §1

AZD5991 = compound: Cc1c2c(nn1C)CSCc1cc(n(C)n1)CSc1cc(c3ccccc3c1)OCCCc1c(C(=O)O)n(C)c3c-2c(Cl)ccc13 [AZD5991]; details: max 1 µM
Outline: as §1

SRA737 = compound: N#Cc1cnc(Nc2cc(NC[C@H]3CNCCO3)c(C(F)(F)F)cn2)cn1 [SRA737]; details: max 10 µM
Outline: as §1

AZD0156 = compound: CN(C)CCCOc1ccc(-c2ccc3ncc4c(c3c2)n(C2CCOCC2)c(=O)n4C)cn1 [AZD0156]; details: max 3 µM
Outline: as §1

Lapatinib = compound: CS(=O)(=O)CCNCc1ccc(-c2ccc3ncnc(Nc4ccc(OCc5cccc(F)c5)c(Cl)c4)c3c2)o1 [Lapatinib]; details: max 10 µM
Outline: as §1

Etoposide = compound: COc1cc([C@@H]2c3cc4c(cc3[C@@H](O[C@@H]3O[C@@H]5CO[C@@H](C)O[C@H]5[C@H](O)[C@H]3O)[C@H]3COC(=O)[C@H]23)OCO4)cc(OC)c1O [Etoposide]; details: max 10 µM
Outline: as §1

Selumetinib = compound: Cn1cnc2c(F)c(Nc3ccc(Br)cc3Cl)c(C(=O)NOCCO)cc21 [Selumetinib]; details: max 10 µM
Outline: as §1

Trametinib = compound: CC(=O)Nc1cccc(-n2c(=O)n(C3CC3)c(=O)c3c(Nc4ccc(I)cc4F)n(C)c(=O)c(C)c32)c1 [Trametinib]; details: max 1 µM
Outline: as §1

MK-2206 = compound: NC1(c2ccc(-c3nc4ccn5c(=O)[nH]nc5c4cc3-c3ccccc3)cc2)CCC1 [MK-2206]; details: max 10 µM
Outline: as §1

AZD8186 = compound: C[C@@H](Nc1cc(F)cc(F)c1)c1cc(C(=O)N(C)C)cc2c(=O)cc(N3CCOCC3)oc12 [AZD8186]; details: max 10 µM
Outline: as §1

Savolitinib = compound: C[C@@H](c1ccc2nccn2c1)n1nnc2ncc(-c3cnn(C)c3)nc21 [Savolitinib]; details: max 1 µM
Outline: as §1

AZD5153 = compound: COc1nnc2ccc(N3CCC(c4ccc(OCCN5CCN(C)C(=O)[C@H]5C)cc4)CC3)nn12 [AZD5153]; details: max 1 µM
Outline: as §1

Olaparib = compound: O=C(c1cc(Cc2n[nH]c(=O)c3ccccc23)ccc1F)N1CCN(C(=O)C2CC2)CC1 [Olaparib]; details: max 10 µM
Outline: as §1

Dasatinib = compound: CC1=C(C(=CC=C1)Cl)NC(=O)C2=CN=C(S2)NC3=CC(=NC(=N3)C)N4CCN(CC4)CCO [Dasatinib]; details: max 2 µM
Outline: as §1

AZD7648 = compound: Cc1cc2ncnn2cc1Nc1ncc2c(n1)n(C1CCOCC1)c(=O)n2C [AZD7648]; details: max 10 µM
Outline: as §1

Row | Cell Line | IC50, cell viability 72 h (Palbociclib) | IC50, cell viability 72 h (Taselisib) | IC50, cell viability 72 h (Prexasertib) | IC50, cell viability 72 h (AZD1390) | IC50, cell viability 72 h (Crizotinib) | IC50, cell viability 72 h (Paclitaxel) | IC50, cell viability 72 h (Alisertib) | IC50, cell viability 72 h (Doxorubicin) | IC50, cell viability 72 h (Carboplatin) | IC50, cell viability 72 h (Venetoclax) | IC50, cell viability 72 h (Gemcitabine) | IC50, cell viability 72 h (SN-38) | IC50, cell viability 72 h (SG3199) | IC50, cell viability 72 h (Gefitinib) | IC50, cell viability 72 h (AZD6738) | IC50, cell viability 72 h (5-Fluorouracil) | IC50, cell viability 72 h (AZD5363) | IC50, cell viability 72 h (AZD2811) | IC50, cell viability 72 h (AZD1775) | IC50, cell viability 72 h [1] | IC50, cell viability 72 h (AZD4320) | IC50, cell viability 72 h (AZD5991) | IC50, cell viability 72 h (SRA737) | IC50, cell viability 72 h (AZD0156) | IC50, cell viability 72 h (Lapatinib) | IC50, cell viability 72 h (Etoposide) | IC50, cell viability 72 h (Selumetinib) | IC50, cell viability 72 h (Trametinib) | IC50, cell viability 72 h (MK-2206) | IC50, cell viability 72 h (AZD8186) | IC50, cell viability 72 h (Savolitinib) | IC50, cell viability 72 h (AZD5153) | IC50, cell viability 72 h (Olaparib) | IC50, cell viability 72 h (Dasatinib) | IC50, cell viability 72 h (AZD7648)
1 | NCI-H28 (Mesothelioma) | > 10000 nM | > 10000 nM | 327 nM | > 300 nM | > 10000 nM | 825 nM | > 10000 nM | > 1000 nM | > 10000 nM | > 1000 nM | 140 nM | > 300 nM | > 1 nM | > 10000 nM | > 10000 nM | > 20000 nM | > 10000 nM | > 1000 nM | > 3000 nM | > 5000 nM | > 1000 nM | > 1000 nM | > 10000 nM | > 3000 nM | > 10000 nM | > 10000 nM | > 10000 nM | > 1000 nM | > 10000 nM | > 10000 nM | > 1000 nM | > 1000 nM | > 10000 nM | 304 nM | > 10000 nM
2 | NCI-H69 (Small Cell Lung Carcinoma) | > 10000 nM | 546 nM | > 1000 nM | > 300 nM | 5700 nM | 4.64 nM | 1110 nM | > 1000 nM | > 10000 nM | > 1000 nM | > 300 nM | 123 nM | > 1 nM | > 10000 nM | > 10000 nM | > 20000 nM | > 10000 nM | 342 nM | 2370 nM | > 5000 nM | 59.5 nM | > 1000 nM | > 10000 nM | > 3000 nM | > 10000 nM | > 10000 nM | > 10000 nM | > 1000 nM | 4550 nM | > 10000 nM | > 1000 nM | > 1000 nM | > 10000 nM | > 2000 nM | > 10000 nM
3 | NCI-H2461 (Mesothelioma) | > 10000 nM | 6270 nM | 48.2 nM | > 300 nM | > 10000 nM | 735 nM | > 10000 nM | 379 nM | > 10000 nM | > 1000 nM | > 300 nM | 91.8 nM | > 1 nM | > 10000 nM | 4160 nM | > 20000 nM | > 10000 nM | > 1000 nM | 630 nM | > 5000 nM | > 1000 nM | > 1000 nM | > 10000 nM | > 3000 nM | > 10000 nM | > 10000 nM | > 10000 nM | > 1000 nM | > 10000 nM | > 10000 nM | > 1000 nM | > 1000 nM | > 10000 nM | > 2000 nM | > 10000 nM
